According to patent US11612641B2, “Method for treating Huntingtons's disease” (UNIVERSITY OF IOWA RESEARCH FOUNDATION, priority 2014, dated 2023):
Entries after “also recorded” stand apart in the source; their conditions may differ.

Assays:
[1] = test system: Q7 and Q111 striatal cells; test: Western blot of Q7 and Q111 striatal cells treated with Torin1; type: cell-based; conditions: 250 nM Torin1, 24 hours
Procedure: (§1) Mutant (Q111) and WT (Q7) striatal cells (Trettel et al., 2000) with full-length HTT were kindly provided by Dr. Marcy MacDonald. The Q7 and Q111 cells were grown at 37° C. in Dulbecco's modified Eagle's medium (DMEM; Sigma Chemical Co, St. Louis, Mo.) supplemented with 10% fetal bovine serum, 1% non-essential amino acids, 2 mM L-glutamine, and 400 μg/ml G418 (Geneticin; Invitrogen, Carlsbad, Calif.).
Mouse striata were harvested and lysed in RIPA buffer containing 50 mM Tris (pH 8.0), 150 mM NaCl, 1% […] detergent, 0.1% SDS detergent, 0.5% deoxycholic acid, and 1 mM β-mercaptoethanol with protease inhibitors (Complete Mini, Roche Applied Science, Mannheim, Germany) and phosphatase inhibitors (PhosSTOP Phosphatase Inhibitor Cocktail, Roche Applied Science, Mannheim, Germany). Tissues were homogenized on ice and spun at 14,000 g for 20 min. Supernatant were used for analysis. Protein concentration was determined by BCA assay (Pierce, Rockford, Ill.) and 20-30 μg of protein was reduced and separated by SDS-PAGE on 4%-10% acrylamide gels and transferred to 0.2 μm Immobilon PVDF membranes (Millipore, Billerica, Mass.). The primary antibodies used were as follows: DARPP-32 (1:1000, Cell Signaling), β-actin (Sigma-Aldrich, 1:5000), S6 (1:1000, Cell Signaling), phospho-S6 (S235/236, 1:1000, Cell Signaling), 4EBP1 (1:1000, Cell Signaling), phospho-4E-BP1 (T37/46, 1:1000, Cell Signaling), mTOR (1:1000, Cell Signaling), Rictor (1:1000, Cell Signaling), Raptor (1:1000, Cell Signaling), CREB (1:1000, Cell Signaling), TORC1 (1:1000, Cell Signaling), PGC1-α (1:1000, abeam), LC3 (1:1000, Novus Biologicals), and Beclin1 (1:1000, Cell Signaling). Secondary antibodies used were HRP-goat anti-mouse IgG and HRP-goat anti-rabbit IgG (Cell Signaling). Blots were developed using ECL Plus Western Blotting Detection System (GE Healthcare, Pittsburgh, Pa.), and then exposed to film. Protein quantification was performed using NIH ImageJ software or the VersaDoc™ Imaging System (Biorad) and Quantity One R analysis software. Band densities were normalized to housekeeping (β-actin) bands from the same samples and lanes.

[2] = test system: Q7 and Q111 striatal cells; test: RT-qPCR of HMGCR and HMGCS1 in Q7 and Q111 striatal cells treated with Torin1; type: cell-based; conditions: 250 nM Torin1, 24 hours, both mutant and normal cell lines
Procedure: as §1
RNA was isolated from striatal punches using 1 ml of TRIzol. Random-primed first-strand complementary DNA (cDNA) synthesis was performed using 500 ng total RNA (High Capacity cDNA Reverse Transcription Kit; Applied Biosystems, Foster City, Calif.) per manufacturer's protocol. Real-time PCR was performed on a sequence detection system (Prism 7900HT, Applied Biosystems) using SYBR green PCR mix (Invitrogen) or TaqMan 2× Universal Master Mix (Applied Biosystems). The following Taqman primer/probe sets were obtained from Applied Biosystem: Rhes (Mm04209172_m1 and Hs04188091_mH), PGC1-α (Mm01208835_m1), and HMGCS1 (Mm01304569_m1), and HDAC4 (Mm01299557_m1). The primer sequences for SYBR green RT PCR are available upon request. Relative gene expression was determined using the AACT method, normalizing to β-actin.

[3] = test system: medium spiny neurons (MSN); test: DARPP-32 staining: MSN cell area and striatal volume in N171-82Q mice; type: in vivo, mouse
Description: (§2) All animal protocols were approved by the University of Iowa Animal Care and Use Committee. N171-82Q mice were obtained from Jackson Laboratories (Bar Harbor, Me.) and maintained on B6C3F1/J background. Mice were genotyped using primers specific for the mutant human HTT transgene, and hemizygous and age-matched wild-type littermates were used for the indicated experiments. Mice were housed in a controlled temperature environment on a 12-hour light/dark cycle. Food and water were provided ad libitum. For pharmacological studies, RAD001 was obtained from LC Laboratories, diluted to 2 mg/ml in 2% DMSO, and stored at −20° C. […]
(§3) Floating, 40-μm coronal brain sections were processed for immunohistochemical staining of medium spiny neurons or mHTT aggregates using biotin-labeled antibody. […] S6 phosphorylation was detected with a phospho-S6 antibody (S235/236, 1:300, Cell Signaling). […] The areas of DARPP-32 positive MSN were quantified by Olympus DP2-BSW software (version 2.1). The average MSN areas of ipsilateral injected sides were compared to contralateral control sides and expressed as means+SEM. EM48 positive inclusions were counted by an experimenter blinded to treatment groups.
Striatal volume was calculated using point counting methods with the Cavalieri estimator of volume (Michel and Cruz-Orive, 1988). […] A minimum of 200 points were counted over 5 sections. […]

[4] = molecular target: T1, mTORC1 (Mus musculus, UniProt P26883+Q9JLN9); test: mTORC1 activity (pS6) in striatum of N171-82Q mice given RAD001; type: in vivo; conditions: RAD001 for 2 weeks vs vehicle, striata harvested 24 hours after the last dose
T1 construct: Biochemical assessment of mTORC1 activity (pS6) in striatal lysates from N171-82Q mice; from tissue; host or cells: striatum of N171-82Q transgenic mice (in vivo)
Description: as §2, with “C. Freshly thawed vehicle and RAD001 (30 μmol/kg) were given 3 times per week (Monday, Wednesday, and Friday) for two weeks by gavage as described previously (Fox et al., 2010).” for “C.”
as §3, with “groups. […]” for “groups.”

[5] = test system: R6/2 HD mice; conditions: R6/2 HD mice (Fox et al., 2010); cited from earlier work

## CCC(=O)N1CCN(c2ccc(-n3c(=O)ccc4cnc5ccc(-c6cnc7ccccc7c6)cc5c43)cc2C(F)(F)F)CC1 [Torin1]
[1]
  CREB: repressed
  DARPP-32 expression: reduced
  PGC1-α: repressed
  p-4E-BP1 levels: reduced
  pS6 levels: reduced
  transducer of regulated CREB 1 (TORC1): repressed
[2]
  HMGCR expression: reduced expression
  HMGCS1 expression: reduced expression

## CO[C@H]1C[C@@H]2CC[C@@H](C)[C@@](O)(O2)C(=O)C(=O)N2CCCC[C@H]2C(=O)O[C@H]([C@H](C)C[C@@H]2CC[C@@H](OCCO)[C@H](OC)C2)CC(=O)[C@H](C)/C=C(\C)[C@@H](O)[C@@H](OC)C(=O)[C@H](C)C[C@H](C)/C=C/C=C/C=C/1C [RAD001]
[3]; 2 weeks of RAD001 treatment in the absence of caRheb, N171-82Q mice
  MSN atrophy: mild but significant exacerbation
[3]; RAD001 30 μmol/kg by gavage 3 times per week for two weeks in AAV.caRheb injected N171-82Q mice
  morphological effects of caRheb (MSN cell size, striatal volume): reversed
[4]
  mTORC1 activity (S6 phosphorylation, pS6): attenuated; also recorded: inhibits mTORC1 activity

## CO[C@H]1C[C@@H]2CC[C@@H](C)[C@@](O)(O2)C(=O)C(=O)N2CCCC[C@H]2C(=O)O[C@H]([C@H](C)C[C@@H]2CC[C@@H](O)[C@H](OC)C2)CC(=O)[C@H](C)/C=C(\C)[C@@H](O)[C@@H](OC)C(=O)[C@H](C)C[C@H](C)/C=C/C=C/C=C/1C [rapamycin]
[5]
  brain atrophy: enhanced brain atrophy
  weight loss: accelerated weight loss
